Measurements from patent EP4806892A1, “CEREBLON E3 UBIQUITIN LIGASE INHIBITOR” (GAN & LEE PHARMACEUTICALS CO., LTD., priority 2023, dated 2025).

How the values were obtained:
Format in all cases: cell-based
MCF-7 cells = test: MCF-7 cell proliferation inhibition (CCK-8); settings: Homo sapiens, MCF7, 144 h, 6 days
Procedure: The complete culture medium required for breast cancer MCF-7 cells (source ATCC) is DMEM (gibco, Product number: 11995-065) basal medium containing 10% fetal bovine serum. MCF-7 cells were seeded in 96-well plates at a density of 800 cells/well, and different concentrations of PROTAC compounds 1-55 provided in the embodiments of the present invention and the positive control sample ARV-471 (source: Inokai) were prepared to treat cells. The cells were incubated at 37 °C and 5% CO2 in a cell culture incubator for 6 days. Cell viability was detected using a CCK-8 kit (Beyotime, Product number: C0040) according to the manufacturer's instructions. The IC50 value of each PROTAC compound for 6 days was calculated using GraphPad Prism software based on the inhibition rate. Table 7: IC50 value for the inhibition of MCF-7 cell proliferation by PROTAC compounds of the present disclosure and positive control sample

ERα [1] = biological target: T1, ERα (Homo sapiens, UniProt P03372); test: ERα degradation in T-47D cells (immunoblot); design: host or cells: T-47D; settings: 10 nM, 4 hours
T1 sequence (P03372 1-595): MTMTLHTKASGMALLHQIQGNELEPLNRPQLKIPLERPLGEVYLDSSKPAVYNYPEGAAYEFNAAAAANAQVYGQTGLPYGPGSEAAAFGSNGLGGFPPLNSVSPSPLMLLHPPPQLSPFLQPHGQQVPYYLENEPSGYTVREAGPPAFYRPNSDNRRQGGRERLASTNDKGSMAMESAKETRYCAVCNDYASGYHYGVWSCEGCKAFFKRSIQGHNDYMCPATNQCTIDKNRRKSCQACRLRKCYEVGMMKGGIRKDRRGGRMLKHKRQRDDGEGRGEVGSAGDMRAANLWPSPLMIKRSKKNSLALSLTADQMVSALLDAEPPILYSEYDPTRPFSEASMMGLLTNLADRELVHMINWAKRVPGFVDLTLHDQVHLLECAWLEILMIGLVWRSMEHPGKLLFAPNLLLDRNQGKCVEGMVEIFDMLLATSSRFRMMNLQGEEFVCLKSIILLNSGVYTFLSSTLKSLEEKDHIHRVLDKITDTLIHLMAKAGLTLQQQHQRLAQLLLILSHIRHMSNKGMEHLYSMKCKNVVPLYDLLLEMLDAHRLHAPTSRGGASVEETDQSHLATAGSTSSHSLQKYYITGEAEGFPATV
Procedure: T-47D (ATCC) cells were cultured in PRMI-1640 medium (30-2001, ATCC) containing 10% FBS (10099141C, Gibco) at 37°C and 5% CO2 until they entered the logarithmic growth phase. T-47D cells were seeded onto 6-well plates at a density of 3×10^5 cells per well, and incubated at 37°C with 5% CO2 for 24 hours. After cell attachment, 1 µL of compound in dimethyl sulfoxide solution (final concentration 0.15-1000 nM) was added and the cells were incubated for another 4 hours at 37°C, 5% CO2. After 4 hours, the culture medium was discarded, and each well was washed once with 1 mL of pre-chilled 1× DPBS. The cells were then lysed with 50 µL of RIPA lysis buffer (P0013B, Beyotime) and 1× protease inhibitor cocktail (P1005, Beyotime). After incubation on ice for 20 minutes, the cells were centrifuged at 14,000 g at 4°C for 30 minutes. The supernatant was carefully collected and analyzed for ERα protein levels by immunoblotting.

T-47D cells = test: T-47D cell proliferation inhibition (CCK-8); settings: Homo sapiens, T47D, 144 h, 6 days
Procedure: The complete culture medium required for breast ductal carcinoma T-47D cells is 1640 (ATCC, Product number: A10491-01) basal medium containing 10% fetal bovine serum. T-47D cells were seeded in 96-well plates at a density of 3,000/well, and different concentrations of PROTAC compounds 1-55 provided in the embodiments of the present invention and the positive control sample ARV-471 (source: Inokai) were prepared to treat the cells and incubated at 37°C, 5% CO2 in a cell culture incubator for 6 days. According to the manufacturer's instructions, the CCK-8 kit (Beyotime, Product number: C0040) was used to detect cell viability. The IC50 of each compound for 6 days was calculated using GraphPadPrism software based on the inhibition rate. Table 6: IC50 value for the inhibition of T-47D cell proliferation by PROTAC compounds and positive control sample

ERα [2] = biological target: T1, ERα; test: ERα degradation in MCF-7 cells (Western blot); settings: 10 nM, 4 hours
Procedure: MCF-7 (ATCC) cells were cultured in DMEM medium (11995-065, Gibco) containing 10% FBS (10099141C, Gibco) at 37°C and 5% CO2 until they entered the logarithmic growth phase. MCF-7 cells were seeded at a density of 3×10^5 cells/well in a 6-well plate and incubated at 37°C, 5% CO2 for 24 hours. After cell attachment, 1 µL of compound in dimethyl sulfoxide solution (final concentration 0.15-1000 nM) was added and the cells were incubated for another 4 hours at 37°C, 5% CO2. After 4 hours, the culture medium was discarded, and each well was washed once with 1 mL of pre-chilled 1× DPBS. […] The supernatant was carefully collected and analyzed for ERα protein levels by immunoblotting.
Western blotting: The total protein concentration in the collected cell lysate supernatant was determined using the BCA protein concentration assay kit (enhanced) (P0009, Beyotime). Based on the total protein concentration determined by BCA, the protein concentration was adjusted to 1 µg/µL using RIPA lysis buffer and 5× SDS-PAGE protein loading buffer (MB01015, GenScript). […] Protein maps were analyzed for grayscale values using Image Studio Lite software. The grayscale correction value for each sample was calculated using the formula: grayscale correction value = grayscale value of the target protein / grayscale value of the corresponding internal reference. […]

IC50 (T-47D cells) | degradation rate of ERα in MCF-7 cells (ERα [2]) | SMILES | IC50 (MCF-7 cells) | degradation rate of ERα in T-47D cells (ERα [1])
 |  | O=C1CCN(c2ccc3c(c2)CC2(CCN(C[C@H]4CC[C@@H](OC5CCN(c6ccc([C@@H]7c8ccc(O)cc8CC[C@@H]7c7ccccc7)cc6)CC5)CC4)CC2)O3)C(=O)N1 [ER-P-1, 1-(1'-(((1S,4S)-4-((1-(4-((1R,2S)-6-hydroxy-2-phenyl-1,2,3,4-tetrahydro-naphthalen-1-yl)phenyl)piperidin-4-yl)oxy)cyclohexyl)methyl)-3H-spiro [benzofuran-2,4'-piperidine]-5-yl)dihydropyrimidine-2,4(1H,3H)-dione] | 845 nM | greater than or equal to 30%
21.7 nM | greater than or equal to 30% | O=C1CCN(c2ccc3c(c2)OCC[C@H]2CN(C[C@H]4CC[C@@H](OC5CCN(c6ccc([C@@H]7c8ccc(O)cc8CC[C@@H]7c7ccccc7)cc6)CC5)CC4)CCN32)C(=O)N1 [ER-P-2, 1-((S)-3-(((1S,4R)-4-((1-(4-((1R,2S)-6-hydroxy-2-phenyl-1,2,3,4-tetrahydronaphthalen-1-yl)phenyl)piperidin-4-yl)oxy)cyclohexyl)methyl)-2,3,4,4a,5,6-hexahydro-1H-benzo[b]pyrazino[1,2-d][1,4]oxazepin-9-yl)dihydropyrimidine-2,4(1H,3H)-dione] |  | 
